Reference: publication PMC5712521, “Dendrogenin A drives LXR to trigger lethal autophagy in cancers” (Nature Communications, 2017)

How the values were obtained:
[1] = test system: B16F10 cells; test: RT-qPCR of LXR-responsive genes; format: cell-based, mouse; settings: 8 h, 2.5 µM DDA, 10 µM 22(R)HC, 1 µM GW, 100 nM TO, vs vehicle
Protocol: (§1) Total RNA was extracted from tumor cells or MEFs using an RNA Extraction kit (Qiagen) or Trizol (Invitrogen), respectively, and was quantified with NanoDrop. Complementary DNA (cDNA) synthesis was performed with 1 μg RNA iScript Reverse Transcriptase (Bio-Rad). 25 ng cDNA was amplified using SyBR Supermix (Bio-Rad). RNA expression of the different genes of interest (Supplementary Tables 1, 2) were determined using the ΔΔCT method, where the difference in the threshold cycle (ΔCT) values of the target gene and the housekeeping gene for each sample was normalized to the ΔCT value of the untreated sample.
(§2) Supplementary Fig. 4. a R egulat ion of LXR-responsive genes b y D DA and other k nown LXR
(§3) ligands in B16F10 and SKMEL- 28 cells transfected with s iRN A targeting LXRβ ( siLXRβ) or
(§4) with contro l siRN A scram ble (siSC). Cells were treated for 8 h with either solvent vehicle, 2.5
(§5) µM DD A, 10 µM 22(R) hydrox ycholesterol (22(R)HC), 1 µM GW 3965 (GW ) or 100 nM
(§6) T O901317 (T O). […]

[2] = test system: SKMEL-28 cells; test: RT-qPCR of LXR-responsive genes; format: cell-based, human; settings: 8 h, 2.5 µM DDA, 10 µM 22(R)HC, 1 µM GW, 100 nM TO, vs vehicle
Protocol: as §1, §2, §3, §4, §5, §6

[3] = test system: SKMEL-28 cells; test: Sterol analysis by GC/MS; format: cell-based, human; settings: 2.5 µM DDA, 24 h
Protocol: Sterols in cell homogenates were extracted with a solvent mixture containing chloroform/methanol 2/1 (v/v) spiked with epicoprostanol as the internal standard. Lipids were partitioned in chloroform after the addition of saline and saponified by methanolic potassium hydroxide (0.5 N, 60 °C, 15 min). The fatty acids released were methylated with BF3-methanol (12%, 60 °C, 15 min) to not interfere with the chromatography of sterols. The sterols were re-extracted in hexane and silylated, as described previously. The trimethylsilylether derivatives of the sterols were separated by gas chromatography (GC) (Hewlett–Packard 6890 series) in a medium polarity capillary column RTX-65, (65% diphenyl 35% dimethyl polysiloxane, length 30 m, diameter 0.32 mm, film thickness 0.25 μm (Restesk, Evry, France)). The mass spectrometer (Agilent 5975 inert XL) in series with the GC was set up for the detection of positive ions. Ions were produced in the electron impact mode at 70 eV. Sterols were identified by the fragmentogram in the scanning mode and quantified by selective monitoring of the specific ions after normalization with the internal standard epicoprostanol and calibration with weighed standards. […]
Quantification of sterols ac cum ulation in SKMEL- 2 8 c ells either expressing LXRβ (shCT L) or with LXRβ (sh3 or sh4LXR β) k nock ed down after 24 h treatm ent with 2.5 µ M DD A or solvent vehicle. Anal yses were perform ed by GC/MS. f Quantification of sterols accumulated in m elanom a cells after 24 h treatm ent with 10 µM 22(R) HC, 1 µ M GW , 100 nM T O or solvent […]
vehicle. […]

[4] = test system: HL60 cells; test: qRT-PCR of Nur77 and NOR1; format: cell-based, human; settings: HL60, 24 h; 5 µM DDA, 2 µM TO, 2 µM GW, 10 µM 22(R)HC
Protocol: as §1
(§7) Supplementary Fig. 6. […]
(§8) D ata are expressed relative to the control (solvent vehic le). D ata from b, f, g, h, j, p, q ar e the m eans ± S.E.M. of 3 independent experiments performed in triplicate (*P<0.05, **P<0.01, ***P<0.001, t test). Images are representative of 3 independent experim ents.

[5] = test system: KG1 cells; test: qRT-PCR of Nur77 and NOR1; format: cell-based, human; settings: KG1, 24 h; 5 µM DDA, 2 µM TO, 2 µM GW, 10 µM 22(R)HC
Protocol: as §1, §7, §8

Compound: CC(C)CCC[C@@H](C)[C@H]1CC[C@H]2[C@@H]3C[C@@H](NCCc4cnc[nH]4)[C@@]4(O)C[C@@H](O)CC[C@]4(C)[C@H]3CC[C@]12C [DDA, Dendrogenin A]
- ABCA1 mRNA ([1]; B16F10, siCT): 0.4±0.1 fold
- ABCG1 mRNA ([1]; B16F10, siCT): 1.4±0.1 fold
- ABCG5 mRNA ([1]; B16F10, siCT): 3.5±0.1 fold
- ABCG8 mRNA ([1]; B16F10, siCT): 1.6±0.2 fold
- LC3A mRNA ([1]; B16F10, siCT): 2.4±0.2 fold
- LC3B mRNA ([1]; B16F10, siCT): 1.7±0.1 fold
- LDLR mRNA ([1]; B16F10, siCT): 4.2±0.2 fold
- NOR1 mRNA ([1]; B16F10, siCT): 4.6±0.1 fold
- Nur77 mRNA ([1]; B16F10, siCT): 6.8±0.2 fold
- SCD1 mRNA ([1]; B16F10, siCT): 1.6±0.2 fold
- SREBP1 mRNA ([1]; B16F10, siCT): 0.9±0.1 fold
- SULT2b1b mRNA ([1]; B16F10, siCT): 1.6±0.1 fold
- ABCA1 mRNA ([1]; B16F10, siLXRβ): 1.2±0.1 fold
- ABCG1 mRNA ([1]; B16F10, siLXRβ): 0.9±0.1 fold
- ABCG5 mRNA ([1]; B16F10, siLXRβ): 1.0±0.1 fold
- ABCG8 mRNA ([1]; B16F10, siLXRβ): 1.2±0.1 fold
- LC3A mRNA ([1]; B16F10, siLXRβ): 0.9±0.2 fold
- LC3B mRNA ([1]; B16F10, siLXRβ): 1.0±0.2 fold
- LDLR mRNA ([1]; B16F10, siLXRβ): 1.0±0.1 fold
- NOR1 mRNA ([1]; B16F10, siLXRβ): 0.3±0.2 fold
- Nur77 mRNA ([1]; B16F10, siLXRβ): 0.4±0.1 fold
- SCD1 mRNA ([1]; B16F10, siLXRβ): 0.9±0.2 fold
- SREBP1 mRNA ([1]; B16F10, siLXRβ): 0.9±0.2 fold
- SULT2b1b mRNA ([1]; B16F10, siLXRβ): 0.8±0.1 fold
- ABCA1 mRNA ([2]; SKMEL-28, siCT): 0.4±0.1 fold
- ABCG1 mRNA ([2]; SKMEL-28, siCT): 1.0±0.1 fold
- ABCG5 mRNA ([2]; SKMEL-28, siCT): 3.9±0.4 fold
- ABCG8 mRNA ([2]; SKMEL-28, siCT): 0.2±0.1 fold
- LC3A mRNA ([2]; SKMEL-28, siCT): 1.7±0.2 fold
- LC3B mRNA ([2]; SKMEL-28, siCT): 1.6±0.1 fold
- LDLR mRNA ([2]; SKMEL-28, siCT): 3.2±0.3 fold
- NOR1 mRNA ([2]; SKMEL-28, siCT): 4.8±0.2 fold
- Nur77 mRNA ([2]; SKMEL-28, siCT): 8.2±0.2 fold
- SCD1 mRNA ([2]; SKMEL-28, siCT): 2.2±0.2 fold
- SREBP1 mRNA ([2]; SKMEL-28, siCT): 0.9±0.2 fold
- SULT2B1b mRNA ([2]; SKMEL-28, siCT): 2.9±0.1 fold
- ABCA1 mRNA ([2]; SKMEL-28, siLXRβ): 0.9±0.1 fold
- ABCG1 mRNA ([2]; SKMEL-28, siLXRβ): 0.8±0.2 fold
- ABCG5 mRNA ([2]; SKMEL-28, siLXRβ): 1.1±0.2 fold
- ABCG8 mRNA ([2]; SKMEL-28, siLXRβ): 0.7±0.2 fold
- LC3A mRNA ([2]; SKMEL-28, siLXRβ): 0.8±0.2 fold
- LC3B mRNA ([2]; SKMEL-28, siLXRβ): 0.9±0.3 fold
- LDLR mRNA ([2]; SKMEL-28, siLXRβ): 1.8±0.2 fold
- NOR1 mRNA ([2]; SKMEL-28, siLXRβ): 1.0±0.1 fold
- Nur77 mRNA ([2]; SKMEL-28, siLXRβ): 1.2±0.2 fold
- SCD1 mRNA ([2]; SKMEL-28, siLXRβ): 1.2±0.1 fold
- SREBP1 mRNA ([2]; SKMEL-28, siLXRβ): 1.0±0.3 fold
- SULT2B1b mRNA ([2]; SKMEL-28, siLXRβ): 1.1±0.2 fold
- Sterol amount/total sterol: 7-DHC ([3]; SKMEL-28 Sh3LXRβ): 0.03± 0.02
- Sterol amount/total sterol: 8-DHC ([3]; SKMEL-28 Sh3LXRβ): 1.52± 0.10
- Sterol amount/total sterol: desmosterol ([3]; SKMEL-28 Sh3LXRβ): 0.01± 0.009
- Sterol amount/total sterol: lathosterol ([3]; SKMEL-28 Sh3LXRβ): 0.71± 0.02
- Sterol amount/total sterol: zymostenol ([3]; SKMEL-28 Sh3LXRβ): 5.78± 0.82
- Sterol amount/total sterol: 7-DHC ([3]; SKMEL-28 Sh4LXRβ): 0.39± 0.09
- Sterol amount/total sterol: 8-DHC ([3]; SKMEL-28 Sh4LXRβ): 4.32± 0.66
- Sterol amount/total sterol: desmosterol ([3]; SKMEL-28 Sh4LXRβ): 0.02± 0.005
- Sterol amount/total sterol: zymostenol ([3]; SKMEL-28 Sh4LXRβ): 6.57± 0.92
- Sterol amount/total sterol: 7-DHC ([3]; SKMEL-28 shCTRL): 0.03± 0.006
- Sterol amount/total sterol: 8-DHC ([3]; SKMEL-28 shCTRL): 5.81± 0.89
- Sterol amount/total sterol: desmosterol ([3]; SKMEL-28 shCTRL): 0.01± 0.008
- Sterol amount/total sterol: lathosterol ([3]; SKMEL-28 shCTRL): 0.41± 0.03
- Sterol amount/total sterol: zymostenol ([3]; SKMEL-28 shCTRL): 2.60±0.07
- NOR1 mRNA levels (Fold over control) [4]: 6.3 fold
- Nur77 mRNA levels (Fold over control) [4]: 11.2 fold
- NOR1 mRNA levels (Fold over control) [5]: 12.2 fold
- Nur77 mRNA levels (Fold over control) [5]: 8.8 fold
